The record followed here is ChEMBL document CHEMBL3507680, “University of Dundee, Gates Library screen for HepG2 cell viability”.

This series in a line: Human HepG2 cell viability assay in 384 well format. The format is toxicity, cell-based. As to conditions: HepG2 cells, read-out: Inhibition. Details: dose 125 nL, time 70.5 hour; cytotoxicity at 70.5 h: concentration not given beside the values.
Regarding `CS(=O)(=O)NCCC(=O)NC1(c2ccc(F)cc2)CCCC1`, the cytotoxicity at 70.5 h was -6.92%. Under `Cc1cc(C)n(CC2CCCN2CCS(C)(=O)=O)n1` (centres undefined) stands -9.56%. On to `Cc1ncccc1OC1(C(=O)NCCC2CCCN2C)CCNCC1` (centres undefined), for which the cytotoxicity at 70.5 h was found to be 13.7%. Consider `Cc1ccc(CC(=O)N2CC[C@@H]3CN(CCN(C)C)CCO[C@@H]3C2)cc1`, for which the cytotoxicity at 70.5 h is -8.7%. Under `O=C(NCC1CCCO1)c1nc2c(s1)CCCN2C(=O)C1CC1` (centres undefined) stands -9.75%; under `CN(C)C(=O)C1CN(c2ncccn2)CCN1C` (centres undefined), -1.97%.

Regarding `CN1CCN(c2ncnc3c2CCN(C(=O)c2cccn2C)CC3)CC1`, the cytotoxicity at 70.5 h is 6.05%. Under `CCN(Cc1ccc2c(c1)OCCO2)C(=O)NCc1nc(C)cs1` stands -27.9%. In the case of `CC(NCCNS(=O)(=O)c1cccc(Cl)c1)C1CCOCC1` (centres undefined), the cytotoxicity at 70.5 h was -6.77%. Under `CN(C)S(=O)(=O)N1C[C@@H](OCc2ccccn2)[C@H]2OCCC[C@H]21` stands -3.83%; under `O=C(C1CCOC1)N1CC2(CCN(c3ccccc3)C2)C1` (centres undefined), -0.441%. Under `O=C(Cn1nc(Br)nc1Br)N1CCCCC1` stands -3.74%. Under `Cc1ccc(CNC(=O)Cn2nc(-c3ccc(F)cc3)oc2=O)cc1F` stands -7.42%. Take `COCCS(=O)(=O)Cc1nnnn1-c1ccccc1`: the cytotoxicity at 70.5 h was -2.53%. Under `Cc1nn(CCNS(=O)(=O)c2ccccc2)c(C)c1Cl` stands -7.1%; under `CC(C)Nc1cc(N2CCCC3(CN(C)C(=O)O3)C2)ncn1` (centres undefined), 15%. Next, `CCCN(CCC)S(=O)(=O)c1cc(NC(C)=O)ccc1C`: 4.44%; `COc1cc(CNc2cnn(CCN3CCOCC3)c2)cc(OC)c1`: -20.4%.

In the case of `CC(=O)N1CC2(CCNCC2)c2cc(Cl)ccc21`, the cytotoxicity at 70.5 h was -6.66%.

Take `O=C(c1cccn1Cc1cccs1)N1CCN(C2CC2)CC1`: the cytotoxicity at 70.5 h is -10.4%. Under `Cc1cnn(CC2CCCCN2C(=O)Cc2ccc(C#N)cc2)c1` (centres undefined) stands -7.76%.

For the compound `CCC(C)Oc1ccc(CNCCNC(C)=O)cc1Cl` (centres undefined), the cytotoxicity at 70.5 h was -3.38%. Under `Cc1ccc(C)n1-c1c(C(=O)NCC(c2ccsc2)N(C)C)cnn1C` (centres undefined) stands -14.4%; under `CC(C)OC(=O)CN1N=C(C(=O)N2CCCC2)S(=O)(=O)c2ccccc21`, 1.63%; under `O=C(c1ccccc1C(F)(F)F)N1C[C@@H](CN2CCOCC2)[C@@H](CO)C1`, -6.68%. Next, `Cc1nc(CN(C)c2nccc(N(C)C)n2)cs1`: -0.0733%. As for `COCCOc1ccc(-c2noc([C@@H]3CCCN3C3CCC3)n2)cn1`, the cytotoxicity at 70.5 h is -3.43%. Under `CCC(C)Oc1ccc(CNCCNC(C)=O)cc1OC` (centres undefined) stands -6.94%; under `Cn1cc(C(=O)Nc2ccnc(Oc3ccccc3)c2)ccc1=O`, -5.49%. Under `Cc1noc(C)c1C(=O)N1C[C@H]2CCC[C@@]2(COc2ccccn2)C1` stands -11.3%.

Take `O=C1COc2c(cccc2C(=O)N2CCCC2Cn2cccn2)N1` (centres undefined): the cytotoxicity at 70.5 h was -8.08%. Under `CC(C)Cc1nc(CN2CCOC(Cn3cncn3)C2)no1` (centres undefined) stands -8.48%. As for `CC1CCC(O)(CSc2nnnn2C)CC1` (centres undefined), the cytotoxicity at 70.5 h is -3.28%. Next, `O=C1CCN(CCS(=O)(=O)c2ccc(Cl)cc2)CCN1`: -11.7%; `CCc1noc(C)c1C(=O)NCCCC(CC)(CC)C1OCCO1`: -5.2%.

In the case of `O=C(N1CCCC1)N1C[C@@H]2CN(Cc3ccoc3)CCO[C@@H]2C1`, the cytotoxicity at 70.5 h is -11.3%. With `CN(C)CCNC(=O)c1cc(-c2cnc(N(C)C)nc2)cn1CC1CC1`, the cytotoxicity at 70.5 h was -6.44%. For the compound `O=C(NCCCO)Nc1cccc(C[S+]([O-])c2ccccc2)c1` (centres undefined), the cytotoxicity at 70.5 h was -6.37%.

For the compound `O=C(NCCNc1ncccn1)c1ccc(-c2ccco2)[nH]c1=O`, the cytotoxicity at 70.5 h is -2.56%. Under `O=C(O)[C@]12CCCN(Cc3cccnc3)[C@@H]1CCN(c1cnccn1)C2` stands 2.83%; under `CN1CCC(N2CCC[C@H]2c2nc(-c3cncnc3N)no2)CC1`, -0.402%; under `CCN1CCCN(c2ccc(-n3ccc(C)n3)nn2)CC1`, 10.6%. Under `CCOC1CCCN(C(=O)NCCc2ccn(-c3ccccc3)n2)C1` (centres undefined) stands 9.56%; under `Cc1csc(CCNC(=O)N2CCC(C(N)=O)CC2)n1`, -16.7%; under `O=C(c1nnn(-c2ccc(Cl)cc2)n1)N(CCO)Cc1ccccc1`, -1.6%. Under `CN(C)CCNC(=O)[C@H]1C[C@H]2CN(c3ncccn3)C[C@H]2N1C` stands -2.47%. Turning to `CCn1c(C2CCCN(Cc3cc(C)cc(C)c3)C2)nn(C)c1=O` (centres undefined), the cytotoxicity at 70.5 h came to 3.73%. Next, `O=C1CO[C@@H]2CN(S(=O)(=O)c3ccccc3)C[C@H]2N1CC1CC1`: -13.1%; `Cc1cnn(CC2CCCN2Cc2nnsc2Cl)c1` (centres undefined): 31.9%; `NC(=O)CCc1cccc(C2CCNCC2)n1`: 1.83%.

Take `O=C(CC(F)(F)F)Nc1cc(F)ccc1OCC1CCCO1` (centres undefined): the cytotoxicity at 70.5 h was -11.3%. Next, `Cc1ccc(CN(CC(=O)NC2CCOCC2)c2ccc(F)cc2)o1`: 1.79%; `CCCOc1ccccc1CN[C@@H]1CCC[C@H]1Cc1cc(C)no1`: 23.6%. Next, `CCN(CC)c1nc2sc(C(=O)NC(C)(C)C(=O)OC)cc2s1`: 0.56%; `Cc1nn(C(C)C)c(C)c1NC(=O)Nc1cccnc1N1CCCC1`: -8.9%. Next, `CCCS(=O)(=O)c1ccc(N2CCN(Cc3ccccc3)CC2)nn1`: -8.4%.

`CCc1nc(C)sc1CN1CC[C@@](O)(C2CC2)[C@H](C)C1`: the cytotoxicity at 70.5 h is -7.56%.

For `CN1CCCC(c2ccnc(C(=O)NC3CC3)c2)C1` (centres undefined), the cytotoxicity at 70.5 h is -3.68%. Under `Cc1ccc(C#N)c(N2CCCC(c3nccn3Cc3cscn3)C2)n1` (centres undefined) stands -3.22%; under `CC(C)CC(=O)N1C[C@@H]2CCN(c3ncccn3)C[C@@H]2C1`, 42.7%. Under `CCN1CC(C(=O)NCc2ccccc2-n2cccn2)CC1=O` (centres undefined) stands -10.2%; under `Cc1ccc(CNC(=O)CC2C(=O)NCCN2Cc2ccccc2C)s1` (centres undefined), -0.0744%. Take `Cc1cnn(-c2cccc(N3CCCCC3)n2)c1`: the cytotoxicity at 70.5 h worked out at 15.7%. Turning to `O=c1c2ccccc2nc2n1C(CSc1ccc(Cl)cc1Cl)CN2` (centres undefined), the cytotoxicity at 70.5 h stood at 29.6%. Next, `Cn1cc(C2CCCN2Cc2csc(C(C)(C)C)n2)cn1` (centres undefined): 25.7%; `O=C(NC1(c2nc(C3CC3)no2)CCCCC1)c1ccncc1`: 5.56%.

Take `Cc1cc(C)n(CC(=O)N2CCCC2c2cc3cccnc3[nH]2)n1` (centres undefined): the cytotoxicity at 70.5 h came to 2.7%. Under `CCOCCCNC(=O)Cc1cccc(F)c1` stands 1.71%; under `COc1ccc2[nH]c(CNc3cc(C4CCNCC4)nc(C)n3)cc2c1`, -3.5%. Under `O=C(NCCc1nncn1C1CC1)C1(Cc2ccccc2)CCC1` stands -1.53%; under `CC(Cc1cnccn1)NC(=O)c1cccc(CC2CCNCC2)c1` (centres undefined), 14%.

`CC(C)S(=O)(=O)CC(=O)N1CCCC(n2ccnc2)C1` (centres undefined): the cytotoxicity at 70.5 h was -0.47%. With `Cc1noc(C)c1CNCC1COCc2c(-c3ccsc3)nnn2C1` (centres undefined), the cytotoxicity at 70.5 h was -15.2%.

Regarding `Cc1cc(C(=O)N2CC[C@@]3(C[C@@H](NS(C)(=O)=O)CCO3)C2)no1`, the cytotoxicity at 70.5 h was -4.95%.

Take `Cc1cccc(CN2CC[C@H]3[C@@H]2CC(=O)N3CC2CC2)n1`: the cytotoxicity at 70.5 h is -9.45%. Next, `Cc1nc[nH]c1CN1CCn2nc(CN3Cc4ccccc4C3)cc2C1`: -7.32%; `COc1ccc(O[C@H]2COCCN(C(=O)c3ccno3)C2)cc1`: -2.74%. For the compound `CNC(=O)c1cc2c(nc1NCC(C)C)CCN(CC1CC1)CC2`, the cytotoxicity at 70.5 h was -9.46%. Under `Cc1nnc(SCCC(=O)N(C)Cc2ccc(F)cc2Cl)[nH]1` stands -4.47%; under `Cc1[nH]ccc1C(=O)N1C[C@H]2CC[C@@H]1CN(S(=O)(=O)N(C)C)C2`, -6.98%; under `Cc1cc(C(=O)N2CCCC2c2nc(O)cc(C(C)C)n2)on1` (centres undefined), -5.06%.

For the compound `COC(=O)NCC1CCC2(CCNCC2)O1` (centres undefined), the cytotoxicity at 70.5 h stood at 28.3%. Next, `Cc1noc(C)c1CCC(=O)N1CCCN(Cc2cccs2)CC1`: -6%; `CCOCC1CN(C(=O)Cc2ccccn2)Cc2cnn(CC)c21` (centres undefined): 10.8%. Next, `Cc1cnc(N2CCCC3(CCN(Cc4csc(C)n4)C3=O)C2)nc1` (centres undefined): 3.6%; `COCCN1CCC(C(=O)N(C)CCOc2ccc(C)cc2Cl)C1` (centres undefined): 20.7%; `CCCNC(=O)CN1CCC(NC(=O)c2cc(CC)ccc2O)CC1`: -6.46%. For the compound `CCOCC(O)CN1CCN(C(=O)Cc2cccc(Cl)c2)CC1` (centres undefined), the cytotoxicity at 70.5 h was -5.95%. With `Cn1ncnc1NS(=O)(=O)c1ccccc1`, the cytotoxicity at 70.5 h was 6.82%. Under `CC(C)c1ccc(-n2ncc(C(=O)NCC3COC(C)(C)O3)c2N)cc1` (centres undefined) stands 26.2%; under `Cc1nn(C)c(Cl)c1C1CCCN1Cc1cccc(C(N)=O)c1` (centres undefined), -10.9%; under `Cc1nc(C)n(CC2CCCN(Cc3nnc(-c4ccco4)o3)C2)n1` (centres undefined), -2.38%. Next, `CC(=O)c1ccccc1NC(=O)CCN1CCSCC1`: 6.67%. In the case of `O=c1cc(Cn2cncn2)nc2n1CCCN(CC1CC1)C2`, the cytotoxicity at 70.5 h is -33%.

As for `Cc1csc(N2CCCN(C(=O)C(C)n3cncn3)CC2)n1` (centres undefined), the cytotoxicity at 70.5 h was determined as 1.24%.

For the compound `Cc1nn(CC(=O)N2CCN(Cc3cn(C)nc3C)CC2)cc1Br`, the cytotoxicity at 70.5 h was 25.1%.

As to `COCCn1ccc2c(cnc3nc(SC)nn32)c1=O`, the cytotoxicity at 70.5 h is -4.98%. Next, `COc1cccc(COCC(=O)N2CCN(CC(C)(C)O)CC2)c1`: 4.32%; `CC(NCc1cnc(C2CCC2)s1)c1ccccc1-n1cccn1` (centres undefined): -3.26%.
